Experiment in all cases: isothermal titration calorimetry
Holding throughout (assay type): binding
Background: In ITC the heat of successive injections is recorded.

In experiment [1] the target is T1, BT0366 (arabinan HTCS sensor), periplasmic domain (Bacteroides thetaiotaomicron, UniProt Q8AAU8).
T1 construct: gene BT_0366
T1 sequence (Q8AAU8 24-810 limits assumed): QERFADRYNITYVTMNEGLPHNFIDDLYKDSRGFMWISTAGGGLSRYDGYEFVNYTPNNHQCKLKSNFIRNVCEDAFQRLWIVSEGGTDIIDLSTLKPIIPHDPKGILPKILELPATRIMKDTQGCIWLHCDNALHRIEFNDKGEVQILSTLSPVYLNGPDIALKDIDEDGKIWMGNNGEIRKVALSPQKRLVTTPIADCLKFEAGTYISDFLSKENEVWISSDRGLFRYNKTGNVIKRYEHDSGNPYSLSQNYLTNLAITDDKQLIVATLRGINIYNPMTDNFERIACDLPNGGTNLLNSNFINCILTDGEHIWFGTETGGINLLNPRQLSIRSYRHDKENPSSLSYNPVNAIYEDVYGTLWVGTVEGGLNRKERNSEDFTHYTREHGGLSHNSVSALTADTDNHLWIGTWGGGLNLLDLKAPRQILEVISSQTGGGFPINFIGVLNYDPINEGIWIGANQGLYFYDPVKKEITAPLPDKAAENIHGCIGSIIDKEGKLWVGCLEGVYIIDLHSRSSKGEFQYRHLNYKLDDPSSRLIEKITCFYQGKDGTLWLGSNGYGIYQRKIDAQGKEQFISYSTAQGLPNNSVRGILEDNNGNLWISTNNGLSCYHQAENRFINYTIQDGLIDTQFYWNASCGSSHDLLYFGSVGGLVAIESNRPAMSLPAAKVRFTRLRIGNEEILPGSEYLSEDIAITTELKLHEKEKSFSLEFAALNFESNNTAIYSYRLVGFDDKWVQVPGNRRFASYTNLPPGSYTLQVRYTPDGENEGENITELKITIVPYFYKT
The following applies: 25 °C, HEPES pH 8.0; two-site fit, site 1 (stronger). An excerpt: isothermal titration calorimetry on BT0366 (arabinan HTCS sensor), periplasmic domain

Experiment [2] has as its target BACOVA_02740 (β-glucan HTCS sensor), periplasmic domain (Bacteroides ovatus, UniProt A0ABU3IRK2). The following applies: 25 °C, HEPES pH 8.0; for Ka / (M^-1): single-site fit. An excerpt:
isothermal titration calorimetry on BACOVA_02740 (β-glucan HTCS sensor), periplasmic domain

The target in experiment [3] is BACOVA_04394 (xylan HTCS sensor), periplasmic domain (Bacteroides ovatus, UniProt A0ABU3IPP8). The following applies: 25 °C, HEPES pH 8.0; for Ka: binding seen, too low to fit (TLTF); for Ka / (M^-1): single-site fit. An excerpt:
isothermal titration calorimetry on BACOVA_04394 (xylan HTCS sensor), periplasmic domain

Molecules are shown by their SMILES.

BACOVA_02740 (β-glucan HTCS sensor), periplasmic domain, sequence (A0ABU3IRK2 21-759 limits assumed): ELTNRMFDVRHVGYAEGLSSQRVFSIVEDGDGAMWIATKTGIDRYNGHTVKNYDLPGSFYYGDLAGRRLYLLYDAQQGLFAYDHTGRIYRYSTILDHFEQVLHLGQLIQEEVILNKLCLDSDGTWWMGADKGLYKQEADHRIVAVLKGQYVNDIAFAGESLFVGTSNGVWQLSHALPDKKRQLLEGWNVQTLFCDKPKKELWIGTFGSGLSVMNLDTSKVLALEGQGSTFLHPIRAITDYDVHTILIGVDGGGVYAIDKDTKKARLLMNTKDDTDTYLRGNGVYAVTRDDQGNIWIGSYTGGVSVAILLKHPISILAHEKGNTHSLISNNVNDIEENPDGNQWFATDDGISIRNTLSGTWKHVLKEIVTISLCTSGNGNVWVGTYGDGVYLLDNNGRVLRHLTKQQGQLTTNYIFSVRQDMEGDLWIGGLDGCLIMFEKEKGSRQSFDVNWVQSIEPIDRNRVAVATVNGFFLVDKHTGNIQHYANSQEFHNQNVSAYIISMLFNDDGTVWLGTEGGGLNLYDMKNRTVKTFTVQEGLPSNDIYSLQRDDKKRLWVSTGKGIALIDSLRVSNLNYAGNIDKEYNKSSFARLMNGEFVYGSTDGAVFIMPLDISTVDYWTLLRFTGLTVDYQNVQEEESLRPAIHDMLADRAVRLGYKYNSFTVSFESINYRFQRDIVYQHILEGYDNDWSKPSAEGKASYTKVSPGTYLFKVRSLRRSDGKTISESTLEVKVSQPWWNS
BACOVA_04394 (xylan HTCS sensor), periplasmic domain, sequence (A0ABU3IPP8 21-805 limits assumed): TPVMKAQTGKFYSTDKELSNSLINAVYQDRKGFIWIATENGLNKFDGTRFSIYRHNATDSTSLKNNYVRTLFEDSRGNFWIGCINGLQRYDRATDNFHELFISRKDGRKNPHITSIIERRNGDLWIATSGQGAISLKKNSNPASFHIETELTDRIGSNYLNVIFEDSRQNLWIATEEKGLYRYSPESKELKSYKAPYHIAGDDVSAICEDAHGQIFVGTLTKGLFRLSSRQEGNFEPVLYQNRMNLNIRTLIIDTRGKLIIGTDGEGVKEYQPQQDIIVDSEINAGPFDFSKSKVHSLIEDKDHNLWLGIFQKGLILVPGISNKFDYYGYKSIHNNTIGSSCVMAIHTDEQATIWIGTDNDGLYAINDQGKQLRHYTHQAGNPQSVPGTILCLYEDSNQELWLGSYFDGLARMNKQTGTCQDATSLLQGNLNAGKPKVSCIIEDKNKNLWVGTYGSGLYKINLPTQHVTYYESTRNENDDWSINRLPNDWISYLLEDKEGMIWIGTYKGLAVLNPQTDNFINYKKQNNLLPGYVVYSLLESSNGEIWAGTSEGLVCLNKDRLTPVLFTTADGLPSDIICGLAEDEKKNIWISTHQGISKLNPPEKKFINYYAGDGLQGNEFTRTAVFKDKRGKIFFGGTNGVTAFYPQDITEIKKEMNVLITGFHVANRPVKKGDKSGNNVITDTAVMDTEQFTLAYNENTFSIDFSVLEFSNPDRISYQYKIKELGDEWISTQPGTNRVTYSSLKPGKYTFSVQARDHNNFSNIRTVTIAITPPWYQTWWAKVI

`OC[C@@H]1O[C@@H](OC[C@@H]2O[C@@H](OC[C@@H]3O[C@@H](OC[C@@H]4O[C@@H](OC[C@@H]5O[C@@H](OC[C@@H]6O[C@@H](OC[C@@H]7OC(O)[C@H](O)[C@H]7O)[C@H](O)[C@H]6O)[C@H](O)[C@H]5O)[C@H](O)[C@H]4O)[C@H](O)[C@H]3O)[C@H](O)[C@H]2O)[C@H](O)[C@H]1O` (stereo partly drawn) [Arabinoheptaose]: in experiment [1], the “Ka / (M^-1)” value turned out to be 3.5E4±0.6. `OC[C@@H]1O[C@@H](OC[C@@H]2O[C@@H](OC[C@@H]3O[C@@H](OC[C@@H]4O[C@@H](OC[C@@H]5O[C@@H](OC[C@@H]6OC(O)[C@H](O)[C@H]6O)[C@H](O)[C@H]5O)[C@H](O)[C@H]4O)[C@H](O)[C@H]3O)[C@H](O)[C@H]2O)[C@H](O)[C@H]1O` (stereo partly drawn) [Arabinohexaose]: the “Ka / (M^-1)” value in experiment [1] was 3.9E3±0.9. Regarding `OC[C@@H]1O[C@@H](OC[C@@H]2O[C@@H](OC[C@@H]3O[C@@H](OC[C@@H]4O[C@@H](OC[C@@H]5O[C@@H](OC[C@@H]6O[C@@H](OC[C@@H]7O[C@@H](OC[C@@H]8OC(O)[C@H](O)[C@H]8O)[C@H](O)[C@H]7O)[C@H](O)[C@H]6O)[C@H](O)[C@H]5O)[C@H](O)[C@H]4O)[C@H](O)[C@H]3O)[C@H](O)[C@H]2O)[C@H](O)[C@H]1O` (stereo partly drawn) [Arabinooctaose], the “Ka / (M^-1)” value in experiment [1] came to 4.8E4±0.1. On to `OC[C@H]1O[C@@H](O[C@@H]2[C@@H](O)[C@H](O[C@H]3[C@H](O)[C@@H](O)[C@H](O[C@H]4[C@H](O)[C@@H](O)[C@H](O[C@H]5[C@H](O)[C@@H](O)C(O)O[C@@H]5CO)O[C@@H]4CO)O[C@@H]3CO)O[C@H](CO)[C@H]2O)[C@H](O)[C@@H](O)[C@@H]1O` (stereo partly drawn) [Glucopentaose A (β3,4,4,4)], for which the Ka result in experiment [2] (binding seen, too low to fit (TLTF)) is recorded as “∼5.0×10^2”. As to `OC[C@H]1O[C@@H](O[C@H]2[C@H](O)[C@@H](O)[C@H](O[C@H]3[C@H](O)[C@@H](O)[C@H](O[C@H]4[C@H](O)[C@@H](CO)OC(O)[C@@H]4O)O[C@@H]3CO)O[C@@H]2CO)[C@H](O)[C@@H](O)[C@@H]1O` (stereo partly drawn) [Glucotetraose B (β4,4,3)], in experiment [2], the “Ka / (M^-1)” value came to 2.5E3±1.3. With `OC[C@H]1O[C@@H](O[C@H]2[C@H](O)[C@@H](O)[C@H](O[C@@H]3[C@@H](O)[C@H](O[C@H]4[C@H](O)[C@@H](O)C(O)O[C@@H]4CO)O[C@H](CO)[C@H]3O)O[C@@H]2CO)[C@H](O)[C@@H](O)[C@@H]1O` (stereo partly drawn) [Glucotetraose C (β4,3,4)], the “Ka / (M^-1)” value in experiment [2] was determined as 3.2E4±0.7.

In the case of `OC[C@H]1O[C@@H](O[C@H]2[C@H](O)[C@@H](O)[C@H](O[C@H]3[C@H](O)[C@@H](CO)OC(O)[C@@H]3O)O[C@@H]2CO)[C@H](O)[C@@H](O)[C@@H]1O` (stereo partly drawn) [Glucotriose B (β4,3)], the “Ka / (M^-1)” value in experiment [2] is listed as 3.4E3±1.9. On to `OC1OC[C@@H](O[C@@H]2OC[C@@H](O)[C@H](O)[C@H]2O)[C@H](O)[C@H]1O` (stereo partly drawn) [Xylobiose], for which, in experiment [3], the Ka entry is “∼5.0×10^2”. As for `OC1OC[C@@H](O[C@@H]2OC[C@@H](O[C@@H]3OC[C@@H](O[C@@H]4OC[C@@H](O[C@@H]5OC[C@@H](O[C@@H]6OC[C@@H](O)[C@H](O)[C@H]6O)[C@H](O)[C@H]5O)[C@H](O)[C@H]4O)[C@H](O)[C@H]3O)[C@H](O)[C@H]2O)[C@H](O)[C@H]1O` (stereo partly drawn) [Xylohexaose], the Ka entry in experiment [3] was “∼5.0×10^2”. Regarding `OC1OC[C@@H](O[C@@H]2OC[C@@H](O[C@@H]3OC[C@@H](O[C@@H]4OC[C@@H](O[C@@H]5OC[C@@H](O)[C@H](O)[C@H]5O)[C@H](O)[C@H]4O)[C@H](O)[C@H]3O)[C@H](O)[C@H]2O)[C@H](O)[C@H]1O` (stereo partly drawn) [Xylopentaose], the “Ka / (M^-1)” value in experiment [3] is listed as 8.8E4±2.9. For `OC1OC[C@@H](O[C@@H]2OC[C@@H](O[C@@H]3OC[C@@H](O[C@@H]4OC[C@@H](O)[C@H](O)[C@H]4O)[C@H](O)[C@H]3O)[C@H](O)[C@H]2O)[C@H](O)[C@H]1O` (stereo partly drawn) [Xylotetraose], the “Ka / (M^-1)” value in experiment [3] was determined as 6.8E5±1.2.

For `OC1OC[C@@H](O[C@@H]2OC[C@@H](O[C@@H]3OC[C@@H](O)[C@H](O)[C@H]3O)[C@H](O)[C@H]2O)[C@H](O)[C@H]1O` (stereo partly drawn) [Xylotriose], the “Ka / (M^-1)” value in experiment [3] worked out at 1.1E3±0.1.

The record behind these values is PMC3243724, “Recognition and Degradation of Plant Cell Wall Polysaccharides by Two Human Gut Symbionts” (PLoS Biology, 2011).
